Results: paper PMC12430443, “Discovery of Novel Benzamide-Based Sigma-1 Receptor Agonists with Enhanced Selectivity and Safety” (Molecules, 2025)
Like-named read-outs stand apart in the source and are kept apart here.

Tests used:
[1] = molecular target: T1, S2R (Homo sapiens, UniProt Q5BJF2); assay: S2R competitive radioligand binding, [3H]-DTG with excess (+)-pentazocine, Jurkat cell membranes; conditions: [3H]-DTG displacement with excess (+)-pentazocine, n = 2
T1 construct: For the S2R assay, Jurkat cell membranes (10–20 μg protein/tube) were incubated at room temperature for 1 h; host or cells: Jurkat cell membranes
Text: S1R and S2R affinities were classically evaluated through competitive binding assays using radioligands, following the protocol described by Ganapathy et al.. The selective radioligand [^3H] (+)-pentazocine was employed as the classic prototypical ligand, selectively binding to the orthosteric S1R-binding sites. […] Jurkat cell membranes served as the receptor source in both assays. The equilibrium dissociation constants (Ki) for S1R and S2R were derived from the IC50 values of each compound, and selectivity ratios (S2R/S1R) were subsequently calculated (Table 1, Figures S2 and S3).
Binding assays were performed by Eurofins Cerep (Poitiers, France) according to the protocol of Ganapathy. […] For the S2R assay, Jurkat cell membranes (10–20 μg protein/tube) were incubated at room temperature for 1 h in the same buffer with [^3H]-DTG (25 nM) in the presence of (+)-pentazocine (1 μM) to saturate S1R, along with a range of test compound concentrations. Bound radioactivity was quantified by liquid scintillation counting. Nonspecific binding was determined under identical conditions in the presence of 10 μM unlabeled haloperidol. The IC50 values (concentration causing a half-maximal inhibition of control-specific binding) and Hill coefficients (nH) were determined by non-linear regression analysis of the competition curves generated with mean replicate values using Hill equation curve-fitting. This analysis was performed using software developed at Cerep (Hill software) and validated by comparison with data generated by the commercial software SigmaPlot ®4.0 for Windows® (©1997 by SPSS Inc.). Inhibition constants (Ki) were calculated from IC50 values using the method of Cheng and Prusoff.

[2] = Plasma protein binding; assay type: in vitro ADME; conditions: n = 2
Procedure: (§1) Solubility and stability remained unchanged in simulated gastric fluid (SGF) and simulated intestinal fluid (SIF), which mimic gastrointestinal digestion. Intestinal permeability was assessed using a two-chamber system with apical (A, pH 6.5) and basolateral (B, pH 7.4) compartments, representing the luminal and blood/mesenteric lymph sides of the gastrointestinal tract, respectively. […] The efflux ratios for both compounds ranged between 1 and 2, indicating improved permeability relative to the reference compound 1.
Standardized in vitro ADME experiments were performed by Eurofins Cerep (Poitiers, France). […] The compound was classically evaluated at 10 µM for all of the ADME analyses. Bidirectional permeability (apical A to basolateral B pH 6.5/7.4, and basolateral B to apical A pH 7.4/6.5) was assessed in the epithelial colorectal adenocarcinoma cell line (Caco-2 cell line). The results were expressed as ×10^−6 cm/s (Papp) and as % recovery. The efflux ratio, i.e., Papp (B→A)/Papp(A→B), was calculated. Plasma protein binding was analyzed by HPLC-MS/MS after 4 h of incubation at 37 °C, as described by Banker et al.. Concentration was evaluated by LC/MS-MS. […] Respective metabolites for each specific transporter substrate were analyzed by fluorometry or scintillation counting, and % inhibition of control values were calculated. […] The efflux ratio was calculated as Papp(B→A)/Papp(A→B). […]

[3] = molecular target: T2, hERG channel (Homo sapiens, UniProt Q12809); assay: hERG automated whole-cell patch-clamp in hERG CHO-K1 cells; assay type: cell-based; conditions: for hERG inhibition IC50 / IC50: tail current, hERG CHO-K1 cells, 0.1 to 10 µM, n = 2; for IC50: read-out: hERG inhibition IC50
T2 construct: host or cells: CHO-K1
Procedure: Cardiac toxicity is a leading cause of drug development failure. Early safety profiling includes evaluation of the potassium voltage-gated channel subfamily H member 2 (KCNH2 or hERG) channel, the only in vitro assay mandated by regulatory agencies to predict proarrhythmic risk. […] Importantly, an IC50 (hERG)/Ki (σ1) ratio exceeding 100 is advised for cardiac safety; all compounds met this criterion.
Cardiotoxicity analysis was performed by Eurofins Cerep (Poitiers, France) as described in [41]. Rapidly, hERG CHO-K1 cells were used to perform automated whole-cell patch-clamp. Compounds were evaluated in duplicate from 0.1 to 10 µM. The degree of inhibition (%) was determined by measuring the tail current amplitude, which was induced by a one-second test pulse to −40 mV after a two-second pulse to +20 mV, before and after drug incubation for 5 min at room temperature. After normalization, activities were expressed as the % inhibition of tail current. […] The concentration–response relationship of each compound was constructed from the percentage reductions in current amplitude by sequential concentrations.

[4] = Plasma stability in mouse plasma; assay type: in vitro ADME; conditions: male CD-1 mouse plasma, 37 °C, read-out: Mouse plasma t1/2 (converted)
Procedure: as §1
Plasma stability was evaluated by M2SV (Lille, France) in duplicate. Male CD-1 mouse plasma (lithium-heparinized; Sera Laboratories International Ltd. BioIVT, West Sussex, UK) was pre-incubated for 10 min at 37 °C before addition of the test compound (final concentration 10 μM, 0.1% DMSO). At 0, 60, 1440, and 2880 min, aliquots were transferred to chilled tubes containing acetonitrile and propranolol (1 μM) as internal standard.

[5] = Microsomal stability; assay type: in vitro ADME; conditions: human, liver microsomes
Procedure: Microsomal stability was evaluated using human liver microsomes at 10 µM (Table 3). […] Since cytochrome P450 (CYP) enzymes—especially families 1 to 3—play major roles in drug metabolism, CYP inhibition was tested against the human isoforms CYP1A, 2B6, 2C8, 2C9, 2C19, 2D6, and 3A, as recommended by FDA and EMA guidelines. […] Membrane transport proteins, including the ATP-binding cassette (ABC) and solute carrier (SLC) families, affect drug pharmacokinetics and potential drug–drug interactions. The inhibitory effects of compounds 2 and 6 were assessed against five ABC transporters (P-gp, BCRP, MRP1, MRP2, and MRP3) and seven SLC transporters (OAT1, OAT3, OATP1B1, OCT1, OCT2, ASBT, and NTCP).

[6] = n = 2, read-out: Human liver microsome intrinsic clearance

T2 sequence (Q12809 whole entry): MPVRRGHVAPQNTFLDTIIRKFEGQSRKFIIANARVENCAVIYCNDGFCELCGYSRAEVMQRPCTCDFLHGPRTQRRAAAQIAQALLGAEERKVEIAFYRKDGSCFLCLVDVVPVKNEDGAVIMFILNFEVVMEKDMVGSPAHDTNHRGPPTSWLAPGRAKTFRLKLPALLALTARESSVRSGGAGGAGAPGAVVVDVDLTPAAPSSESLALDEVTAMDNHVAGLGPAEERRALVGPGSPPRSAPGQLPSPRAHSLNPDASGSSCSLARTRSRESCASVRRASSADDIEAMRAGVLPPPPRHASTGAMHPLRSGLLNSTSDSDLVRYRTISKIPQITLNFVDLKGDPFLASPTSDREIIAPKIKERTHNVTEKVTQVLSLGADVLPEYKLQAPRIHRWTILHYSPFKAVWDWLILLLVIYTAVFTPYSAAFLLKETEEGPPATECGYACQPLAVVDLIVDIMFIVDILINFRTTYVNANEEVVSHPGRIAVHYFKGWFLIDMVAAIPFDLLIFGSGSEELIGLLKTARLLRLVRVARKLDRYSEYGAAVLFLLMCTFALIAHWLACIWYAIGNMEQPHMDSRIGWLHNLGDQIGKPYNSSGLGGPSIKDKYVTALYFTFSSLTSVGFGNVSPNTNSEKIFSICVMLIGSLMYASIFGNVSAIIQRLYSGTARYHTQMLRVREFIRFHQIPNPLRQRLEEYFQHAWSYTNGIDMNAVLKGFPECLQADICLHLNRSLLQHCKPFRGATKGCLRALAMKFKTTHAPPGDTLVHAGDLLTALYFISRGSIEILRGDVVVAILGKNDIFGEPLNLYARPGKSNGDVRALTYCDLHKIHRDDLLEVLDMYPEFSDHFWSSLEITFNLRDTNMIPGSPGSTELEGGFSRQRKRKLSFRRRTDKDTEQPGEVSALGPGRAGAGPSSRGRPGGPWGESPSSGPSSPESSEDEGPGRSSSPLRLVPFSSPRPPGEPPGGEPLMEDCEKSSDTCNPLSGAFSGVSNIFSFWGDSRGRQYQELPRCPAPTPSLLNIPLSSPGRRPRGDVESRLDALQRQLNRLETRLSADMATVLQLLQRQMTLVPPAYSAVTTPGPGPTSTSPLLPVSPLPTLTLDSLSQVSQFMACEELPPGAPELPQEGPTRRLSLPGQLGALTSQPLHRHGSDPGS
T1 sequence (Q5BJF2 whole entry): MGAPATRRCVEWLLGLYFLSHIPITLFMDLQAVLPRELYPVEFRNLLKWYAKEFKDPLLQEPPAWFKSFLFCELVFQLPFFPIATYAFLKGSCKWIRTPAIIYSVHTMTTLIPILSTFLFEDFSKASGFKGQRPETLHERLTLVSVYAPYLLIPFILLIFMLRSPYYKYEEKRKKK

CN(CCC(=O)NCc1cccc(Cl)c1)Cc1ccccc1 [Compound 2, 3-(Benzylmethylamino)-N-(3-chlorobenzyl)propanamide]
IC50 [1]: 270 nM
fraction unbound at 4 h, 10 µM [2]: 0.02
hERG inhibition IC50 [3]: micromolar range
IC50 [3]: 6800 nM
half-life at 10 µM [4]: 35 h
microsomal CLint at 10 µM [5, 6]: 135 µL/min/mg

CN(CCC(=O)NCc1ccc(C#N)cc1)Cc1ccccc1 [Compound 6, 3-(Benzylmethylamino)-N-(4-cyanobenzyl)propanamide]
IC50 [1]: 2400 nM
fraction unbound at 4 h, 10 µM [2]: 0.37
IC50 (hERG)/Ki (σ1) ([3]; ratio): 143
hERG inhibition IC50 [3]: micromolar range
IC50 [3]: 800 nM
half-life at 10 µM [4]: > 48 h
half-life at 10 µM ([5]; as in running text, read-out: Human liver microsome half-life): > 1 h
half-life at 10 µM ([5]; n = 2, read-out: Human liver microsome half-life t1/2): > 1 h
microsomal CLint at 10 µM [5, 6]: < 116 µL/min/mg
microsomal CLint at 10 µM ([5]; read-out: Human liver microsome clearance): < 115 µL/min/mg
